Laboratory results published in publication PMC2990605 (British Journal of Cancer, 2010).
Entries after “also recorded” stand apart in the source; their conditions may differ.

Test: Plasma pharmacokinetics of tosedostat, CHR-79888 and paclitaxel (LC-MS/MS, noncompartmental)
Details: for AUC(0-t) / Cmax / Tmax / half-life / Vd/F: human, oral, mean (±s.e.m.); for AUC(0-t): AUC0−t; for half-life: T½; for Vd/F: Vz/F
[1] = plasma, 90 mg, cohort 1: CHR-2797 90 mg, paclitaxel 135 mg m^−2, day 21, tosedostat without paclitaxel, plasma
[2] = plasma, 90 mg, cohort 2: CHR-2797 90 mg, paclitaxel 175 mg m^−2, day 21, tosedostat without paclitaxel, plasma
[3] = plasma, 130 mg, cohort 3: CHR-2797 130 mg, paclitaxel 175 mg m^−2, day 21, tosedostat without paclitaxel, plasma
[4] = plasma, 180 mg, cohort 4: CHR-2797 180 mg, paclitaxel 175 mg m^−2, day 21, tosedostat without paclitaxel, plasma
[5] = plasma, cohort 1: CHR-2797 90 mg, paclitaxel 135 mg m^−2, day 22, tosedostat in combination with paclitaxel, plasma
[6] = plasma, cohort 2: CHR-2797 90 mg, paclitaxel 175 mg m^−2, day 22, tosedostat in combination with paclitaxel, plasma
[7] = plasma, cohort 3: CHR-2797 130 mg, paclitaxel 175 mg m^−2, day 22, tosedostat in combination with paclitaxel, plasma
[8] = plasma, cohort 4: CHR-2797 180 mg, paclitaxel 175 mg m^−2, day 22, tosedostat in combination with paclitaxel, plasma

Experimental: On day 21, samples were taken until 8 h post-dose; the day 22 predose sample was used as the 24 h sample of day 21. […] Peak plasma concentrations (Cmax), overall drug exposure (AUC), and terminal plasma half-life (t½) were calculated using noncompartmental methods using WinNonlin Professional software (version 4.1, Pharsight Corporation, St Louis, MO, USA). Pharmacokinetics analysis, with reference to possible interactions, was descriptive.

Compound: CC(C)C[C@@H](C(=O)N[C@H](C(=O)OC1CCCC1)c1ccccc1)[C@H](O)C(=O)NO [tosedostat]
- effect of paclitaxel coadministration on Cmax, tmax and t½ (day 21 versus day 22): tendency for a decreased Cmax and an increased tmax and t½
- effect of paclitaxel coadministration on overall exposure (AUC0−t) (day 21 versus day 22): unaffected by paclitaxel administration; also recorded: unaffected by paclitaxel coadministration
- AUC(0-t) [1]: 1.14 µg·h/mL
- AUC(0-t) [2]: 1.89 µg·h/mL
- Cmax [1]: 0.522 µg/mL
- Cmax [2]: 0.969 µg/mL
- Tmax [1]: 1.2 h
- Tmax [2]: 1.2 h
- half-life [1]: 1.2 h
- half-life [2]: 1.3 h
- Vd/F [1]: 179 L
- Vd/F [2]: 72 L
- AUC(0-t) [3]: 1.92 µg·h/mL
- Cmax [3]: 0.88 µg/mL
- Tmax [3]: 1.7 h
- half-life [3]: 1.1 h
- Vd/F [3]: 112 L
- AUC(0-t) [4]: 2.52 µg·h/mL
- Cmax [4]: 1.4 µg/mL
- Tmax [4]: 1.7 h
- half-life [4]: 1.1 h
- Vd/F [4]: 123 L
- AUC(0-t) [5]: 0.896 µg·h/mL
- AUC(0-t) [6]: 1.41 µg·h/mL
- AUC(0-t) [7]: 1.4 µg·h/mL
- AUC(0-t) [8]: 1.71 µg·h/mL
- Cmax [5]: 0.289 µg/mL
- Cmax [6]: 0.527 µg/mL
- Cmax [7]: 0.615 µg/mL
- Cmax [8]: 0.399 µg/mL
- Tmax [5]: 4 h
- Tmax [6]: 2 h
- Tmax [7]: 1.3 h
- Tmax [8]: 4 h
- half-life [5]: 2.4 h
- half-life [6]: 3.1 h
- half-life [7]: 4 h
- half-life [8]: 3.1 h
- Vd/F [5]: 258 L
- Vd/F [6]: 276 L
- Vd/F [7]: 587 L
- Vd/F [8]: 471 L
- PK interaction between tosedostat and paclitaxel (in vivo): no PK interaction
- overall exposure versus dose (tosedostat 90–180 mg, plasma): increased in a dose proportional manner
